From US8778966B2, “Quinolinone derivatives as PARP and tank inhibitors” (Janssen Pharmaceutica, NV, priority 2007, dated 2014) come the findings set out here.

This test concerns HCT116 cells. The experiment in a line: Mitotic arrest assay on HCT116 cells (phospho-histone H3 Ser10). The test is classed as cell-based, human. The following applies: Homo sapiens, HCT-116, HCT116 cells; lowest active dose; read-out: Mitotic arrest HCT116 LAD (converted). From the text: Phosphorylation of histone H3 is tightly correlated with chromosome condensation during both mitosis and meiosis. The assay is a cellular immunosorbent assay wherein the sole antibody is labelled with a detectable conjugate. The phospho-histone H3 (ser10) antibody detects endogenous levels of histone H3 only when phosphorylated at serine 10. […] In parallel with antibody detection, the nuclei of the cells are stained with Hoechst 33342 for cell-counting. Cells are detected and analysed using the InCell Analyzer 1000 from GE Healthcare. Since both the antibody-detection as well as the Hoechst-staining are in the nucleus, the dual area object intensity algorithm is used for analysing the wells.
All compounds tested were dissolved in DMSO and further dilutions were made in culture medium. Final DMSO concentrations never exceeded 0.1% (v/v).
HCT116 cells (supplier: ATCC) (human colon carcinoma cell line) were cultivated in Mc Coy's 5 A medium (supplier: Gibco) supplemented with 10% foetal calf serum (FCS), 2 mM L-glutamine and gentamycin at 37° C. in a humidified incubator with 5% CO2.
HCT116 cells were seeded at 20.000 cells per well in a 96 well plate (black/clear bottom, poly-D-lysine coated, supplier Greiner), cultured overnight to adhere to the bottom of the plate and treated with compound for 6 hours at 37° C. in a humidified incubator. After incubation, the medium was removed and cells were fixed using 100 μl/well formaldehyde (Accustain®, Formaline solution 10% neutral buffered, contains 4% formaldehyde w/v, supplier: Sigma) was added. After incubation for 15 minutes at room temperature, the formaldehyde was removed and cells were incubated with methanol (−20° C.) for 15 minutes at room temperature. After incubation, cells were washed once with phosphate-buffered saline (PBS —CaCl2, —MgCl2, suppier: Gibco)/0.05% Tween 20. The anti-phospho-histone H3 (Ser10) Alexa Fluor 488 antibody (supplier: Cell signalling) is used for detection of the cells inmitosis. The antibody was diluted 1/50 in 5% bovine serum albumins (BSA) and 50 μl/well was used for incubation overnight at room temperature in the dark.
A 1/2000 dilution of Hoechtst 33342 (10 mg/ml, supplier: Invitrogen) was made and 100 μl/well was added for at least 30 minutes before acquiring images. The absorbance at dual wavelengths of 360/480 nm was measured using the InCell Analyzer 1000 from GE Healthcare and the results were then analyzed.
For each experiment, controls (containing no drug) and a blank incubation (containing no cells or drugs) were run in parallel. Analysis was done in triplicate. Low cell count wells were invalidated. The blank value was subtracted from all control and sample values and divided by the standard deviation of the measurements. The compounds were considered active when the obtained value (sigma) was >5. Herein the effects of test compounds are expressed as the lowest dose giving a sigma value of >5 (LAD) (see table F-2).

Turning to `CCc1cc2ccc([C@@](C)(C#N)CCOc3ccccc3)cc2[nH]c1=O` (single isomer, unassigned) [Compound 150], the minimal effective concentration was 0.316 µM.
The figure for `CCc1cc2ccc(C(C)(C#N)Cc3cccc(C(=O)O)c3)cc2[nH]c1=O` (stereo not drawn) [Compound 10] is 10 µM; for `CCc1cc2ccc(C(C)(C#N)Cc3cccc(C(=O)NC)c3)cc2[nH]c1=O` (stereo not drawn) [Compound 13] it is 1 µM; for `CCc1cc2ccc(C(C)(C#N)Cc3cccc(NS(C)(=O)=O)c3)cc2[nH]c1=O` (stereo not drawn) [Compound 14] it is 10 µM.
The figure for `CCc1cc2ccc(C(C)(C#N)Cc3cccc(NC(=O)N4CCOCC4)c3)cc2[nH]c1=O` (stereo not drawn) [Compound 16] is 10 µM.
The figure for `CCc1cc2ccc(C(C)(C#N)Cc3ccc(C(F)(F)F)cc3)cc2[nH]c1=O` (stereo not drawn) [Compound 108] is 3.16 µM; for `CCc1cc2ccc(C(C)(C#N)Cc3ccc(C#N)cc3)cc2[nH]c1=O` (stereo not drawn) [Compound 111] it is 3.16 µM; for `CCc1cc2ccc(C(C)(C#N)Cc3ccc(F)cc3)cc2[nH]c1=O` (stereo not drawn) [Compound 115] it is 0.316 µM.
In the case of `CCc1cc2ccc(C(C)(C#N)Cc3ccc(C)cc3)cc2[nH]c1=O` (stereo not drawn) [Compound 117], the minimal effective concentration is 1 µM.
As to `CCc1cc2ccc(C(C)(C#N)Cc3cc(C(F)(F)F)cc(C(F)(F)F)c3)cc2[nH]c1=O` (stereo not drawn) [Compound 131], the minimal effective concentration was 3.16 µM.
With `CCc1cc2ccc(C(C)(C#N)Cc3cc(Br)cc(Br)c3)cc2[nH]c1=O` (stereo not drawn) [Compound 133] the figure was 0.1 µM; with `CCc1cc2ccc(C(C)(C#N)CCOc3ccc(Cl)cc3)cc2[nH]c1=O` (stereo not drawn) [Compound 146], 0.316 µM; with `CCc1cc2ccc(C(C)(C#N)CCOc3ccc(C)cc3)cc2[nH]c1=O` (stereo not drawn) [Compound 149], 0.316 µM.
The figure for `CCc1cc2ccc(C(C)(C#N)CCOc3ccccc3Cl)cc2[nH]c1=O` (stereo not drawn) [Compound 152] is 0.316 µM.
With `CCc1cc2ccc(C(C)(C#N)CCOc3ccccc3Br)cc2[nH]c1=O` (stereo not drawn) [Compound 153] the figure was 0.316 µM.
Take `CCc1cc2ccc(C(C)(C#N)CCOc3ccc(SC)cc3)cc2[nH]c1=O` (stereo not drawn) [Compound 155]: the minimal effective concentration is 1 µM.
With `CCc1cc2ccc(C(C)(C#N)CCOc3ccccc3C(C)=O)cc2[nH]c1=O` (stereo not drawn) [Compound 159] the figure was 3.16 µM; with `CCc1cc2ccc(C(C)(C#N)CCOc3ccc4oc(C)c(C)c4c3)cc2[nH]c1=O` (stereo not drawn) [Compound 162], 3.16 µM; with `CCc1cc2ccc(C(C)(C#N)CCOc3cccc4c3OCCO4)cc2[nH]c1=O` (stereo not drawn) [Compound 163], 1 µM.
`CCc1cc2ccc(C(C#N)(CCOc3ccccc3)C3CC3)cc2[nH]c1=O` (stereo not drawn) [Compound 166]: the minimal effective concentration is 1 µM.
The figure for `CCc1cc2ccc(C(C)(C#N)CCOc3ccc(C(C)(C)C)cc3)cc2[nH]c1=O` (stereo not drawn) [Compound 167] is 1 µM.
